Source: PubChem BioAssay (NCI)
“And” between values parts separate entries of the source, which are not always exact repeats. Equal entries are not always repeated.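 1) Cells in 96-well plates. 2) Compound, 48 h, 5 concentrations. 3) Linear interpolation between surrounding doses. 4) Unreached endpoint = highest concentration. Abbreviation: GI50, concentration required for 50% inhibition of growth. Definition used: TGI = concentration required for complete inhibition of growth.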

Columns and labels:
Experiment in all cases: NCI-60 cell line screen, 48 h
A549 NSCLC = system: A549 NSCLC
NCI-H522 lung = system: NCI-H522 lung
U251 CNS = system: U251 CNS
HCC-2998 colon = system: HCC-2998 colon
CAKI-1 renal = system: CAKI-1 renal
CCRF-CEM leukemia = system: CCRF-CEM leukemia
SF-295 CNS = system: SF-295 CNS
NCI/ADR-RES ovarian = system: NCI/ADR-RES ovarian
HOP-62 NSCLC = system: HOP-62 NSCLC
T-47D breast = system: T-47D breast

Compound | TGI (A549 NSCLC) | TGI (NCI-H522 lung) [µM] | TGI (U251 CNS) | TGI (HCC-2998 colon) | TGI (CAKI-1 renal) [µM] | TGI (CCRF-CEM leukemia) | TGI (SF-295 CNS) | GI50 (NCI/ADR-RES ovarian) [nM] | TGI (NCI/ADR-RES ovarian) [µM] | GI50 (NCI-H522 lung) | GI50 (HOP-62 NSCLC) | TGI (HOP-62 NSCLC) | GI50 (U251 CNS) | GI50 (HCC-2998 colon) | GI50 (T-47D breast) | GI50 (CCRF-CEM leukemia) | GI50 (SF-295 CNS) | GI50 (A549 NSCLC) [µM] | GI50 (CAKI-1 renal) [nM] | TGI (T-47D breast) [µM]
NC(CCc1ncc(-c2ccccc2)s1)C(=O)O (stereo not given) | > 100 µM | > 100 | > 100 µM | > 100 µM | > 100 | > 100 µM | > 100 µM | – | – | – | – | – | – | – | – | – | – | – | – | –
c1ccc2cc(C[n+]3ccn(Cc4ccc5ccccc5n4)c3)ccc2c1 | 14.1 µM and 24.2 µM | – | 12.4 µM and 15.2 µM | 3.76 µM and 12.7 µM | – | 11 µM and 16.4 µM | 4.98 µM and 18.7 µM | > 100000 | > 100 | 275 nM and 2300 nM | 1400 nM and 5050 nM | 7.02 µM and 20.3 µM | 406 nM and 3190 nM | 389 nM and 2650 nM | 239 nM and 2320 nM | 728 nM and 3640 nM | 710 nM and 4460 nM | – | – | –
CCOc1ccc(NCC2CC/C(=C\c3ccc(Cl)cc3)C2=O)cc1 (stereo not given) | > 100 µM | 13.9 | > 57.3 µM | 18 µM | > 73.8 | 22.8 µM | > 100 µM | – | – | – | – | > 100 µM | – | – | – | – | – | – | – | –
Cc1ccc(/C=C/C(=O)c2ccc([N+](=O)[O-])cc2)cc1 | > 100 µM | > 100 | > 100 µM | > 100 µM | > 100 | > 100 µM | > 100 µM | – | – | – | – | > 100 µM | – | – | – | – | – | – | – | –
Cc1cccc(C(C)C)c1NC(=O)CCl | > 100 µM | 30 | > 100 µM | > 100 µM | 91.7 | > 100 µM | > 100 µM | – | – | – | – | 98.8 µM | – | – | – | – | – | – | – | –
C=C1CCC2C(C)(CO)C(O)CCC2(C)C1C/C=C1/CCOC1=O (stereo not given) | > 100 µM | > 100 | > 100 µM | > 100 µM | > 100 | > 100 µM | > 100 µM | – | – | – | – | > 100 µM | – | – | – | – | – | – | – | –
O=C(c1nn(-c2ccc(Cl)cc2)cc1O)n1nc(C(F)(F)F)cc1-c1ccccc1 | > 100 µM | – | > 100 µM | > 100 µM | > 36.8 | > 33.8 µM | > 65.6 µM | 2090 | > 35.9 | – | 1840 nM | > 76.9 µM | 2650 nM | 9400 nM | 4010 nM | 738 nM | 478 nM | 6.51 | 1890 | > 100
O=C1CCNC(=O)NC1 | > 100 µM | > 100 | > 100 µM | – | > 100 | > 100 µM | > 100 µM | – | – | – | – | > 100 µM | – | – | – | – | – | – | – | –
O=C1c2cccc3c(Cl)ccc(c23)C(=O)N1CCCN1CCN(CCCN2C(=O)c3cccc4c(Cl)ccc(c34)C2=O)CC1 | > 100 µM | – | > 100 µM | > 100 µM | > 100 | > 100 µM | > 100 µM | – | – | – | – | > 100 µM | – | – | – | – | – | – | – | –
CCC(C)c1cccc(C)c1NC(=O)C(=O)Cc1nc2ccccc2s1 (stereo not given) | > 100 µM | > 100 | > 100 µM | > 100 µM | > 100 | > 100 µM | > 100 µM | – | – | – | – | > 100 µM | – | – | – | – | – | – | – | –
c1ccc2c(c1)Sc1ccccc1N2C1CN2CCC1CC2 (stereo not given) | 32.1 µM | 38.9 | 30.9 µM | 29 µM | 33.9 | 33.9 µM | 32.2 µM | – | – | – | – | 25.9 µM | – | – | – | – | – | – | – | –
COc1ccc(-c2nc(-c3ccccn3)c(-c3ccccn3)n2CC(C)C)cc1OC1CCCC1 | 65.1 µM | 81.3 | 86.9 µM | – | 90.2 | 59.8 µM | 106 µM | 6960 | > 165 | 31400 nM | 15300 nM | > 165 µM | 20600 nM | – | 9730 nM | 7540 nM | 9560 nM | 9.02 | 7440 | > 165
O=C(/C=C/c1ccccc1O)c1cccc2ccccc12 | > 100 µM | > 100 | > 66.4 µM | > 100 µM | > 100 | 54 µM | > 100 µM | – | – | – | – | > 100 µM | – | – | – | – | – | – | – | –
O=C1CCCC(O)=C1SC1=C(O)CCCC1=O | > 100 µM | > 100 | > 100 µM | > 100 µM | > 100 | > 100 µM | > 100 µM | – | – | – | – | – | – | – | – | – | – | – | – | –
CN1C(=O)CCC1c1ccc2c(c1)oc(=O)n2C (stereo not given) | > 100 µM | > 100 | > 100 µM | > 100 µM | > 100 | > 100 µM | > 100 µM | – | – | – | – | > 100 µM | – | – | – | – | – | – | – | –
CC[C@H]1CN(C)[C@H]2Cc3c([nH]c4ccccc34)C(=O)C[C@H]1C2C(=O)OC (stereo not given in full) | > 100 µM | > 100 | > 100 µM | > 100 µM | – | > 100 µM | > 100 µM | – | > 100 | – | – | > 100 µM | – | – | – | – | – | – | – | > 100
O=C(NO)c1ccc(Cn2c(=O)n(-c3ccccc3)c(=O)c3ccccc32)cc1 | 13.6 µM | – | 2.3 µM | 2.65 µM | 12.3 | > 100 µM | 2.98 µM | 2670 | 39.5 | – | 1320 nM | 3.24 µM | 860 nM | 1310 nM | 436 nM | 457 nM | 1380 nM | 2.33 | 2810 | 2.95
COc1ccc(C(=O)/C=C/c2cc(-c3ccc4c(c3)OCO4)n[nH]2)cc1OC | 15.8 µM | 4.44 | 5.37 µM | 17.3 µM | 4.33 | 9.58 µM | 6.15 µM | – | – | 1820 nM | 2080 nM | 5.6 µM | 1580 nM | 4990 nM | 3230 nM | 2520 nM | 2510 nM | 2.7 | 1900 | 26.1
COc1cc2cnc(-c3ccccc3)cc2cc1OC | 85.3 µM | 53 | 56.5 µM | – | 62.4 | – | 45.1 µM | – | 73.6 | – | – | > 100 µM | – | – | – | – | – | – | – | > 100
CCOC(=O)C(=O)Nc1ccccc1OCC | > 100 µM | > 100 | > 100 µM | > 100 µM | > 100 | > 100 µM | > 100 µM | – | – | – | – | > 100 µM | – | – | – | – | – | – | – | –
CCCCCCCCNC(C)C(O)c1ccc(SC(C)C)cc1 (stereo not given) | – | 2.95 | – | 3.02 µM | 3.08 | 7.19 µM | 3.2 µM | 1570 | 3.17 | 1430 nM | 1530 nM | 2.87 µM | – | 1580 nM | 1320 nM | 2440 nM | 1680 nM | – | 1540 | 2.85
